This note sets out measurements from US20250115612A1, “CERTAIN 2,5-DIAZABICYCLO[4.2.0]OCTANES AND OCTAHYDROFURO[3,4-B]PYRAZINES AS GLP-1 RECEPTOR MODULATORS” (ASTRAZENECA AB, priority 2021, published 2025).

The target in one experiment is T1, human GLP-1R receptor (Homo sapiens, UniProt P43220, L260F).
T1 construct: expressed in transfected cells; host or cells: CHO-K1 (ATCC CCL-61)
The experiment is described as follows: CHOK1 GLP-1R cAMP assay (HTRF). The format is cell-based. The conditions noted are these: CHO-K1 cells stably expressing human GLP-1R. A digest of the protocol:
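Cells were CHO-K1 stably expressing human GLP-1R (Leu260Phe variant), at 800 cells/well in HEPES pH 7.4/HBSS/0.1% BSA with IBMX, stimulated 20 min at rt. cAMP was measured by competitive HTRF and converted via a standard curve. EC50 came from a 4-parameter logistic fit, with % effect relative to a saturating GLP-1(7-36)NH2 concentration.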

The target in another experiment is T2, GLP-1R (Homo sapiens, UniProt P43220).
T2 construct: host or cells: EndoC-βH1
T2 sequence (P43220 24-463): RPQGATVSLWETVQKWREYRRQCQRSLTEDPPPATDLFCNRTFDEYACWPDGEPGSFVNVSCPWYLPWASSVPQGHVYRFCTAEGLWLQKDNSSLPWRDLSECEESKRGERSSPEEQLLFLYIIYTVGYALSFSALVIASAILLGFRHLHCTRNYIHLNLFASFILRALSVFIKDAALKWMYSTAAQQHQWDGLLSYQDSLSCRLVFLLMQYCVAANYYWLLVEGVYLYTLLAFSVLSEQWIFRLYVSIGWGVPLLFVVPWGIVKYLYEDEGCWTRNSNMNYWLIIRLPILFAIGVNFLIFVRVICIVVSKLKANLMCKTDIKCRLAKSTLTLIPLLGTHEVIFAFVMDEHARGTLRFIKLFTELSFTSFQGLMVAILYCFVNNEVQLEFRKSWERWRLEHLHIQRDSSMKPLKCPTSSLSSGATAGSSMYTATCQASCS
The experiment in a line: EndoC cAMP accumulation assay (HTRF, EndoC-βH1 cells). The experiment is classed as cell-based. The conditions noted are these: EndoC-βH1 human pancreatic β cell line. A digest of the protocol:
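Thawed cryopreserved EndoC-βH1 cells, about 3000 per well, were stimulated for 30 min at room temperature. Buffer was HBSS with 25 mM HEPES pH 7.4, 0.1% BSA and 0.5 mM IBMX. cAMP was measured by competitive HTRF after 1 h lysis/detection (590/660 nm). Four-parameter fits gave % activation between basal and maximal GIP (82.5 nM) signal.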
A general note: Cyclic AMP is a second messenger, typically raised through Gs and lowered through Gi signalling.

Experiment [1] concerns the target T3, human phosphodiesterase-3A (Homo sapiens, UniProt Q14432).
T3 construct: host or cells: Sf9 (Spodoptera frugiperda)
The experiment in a line: PDE3 assay (formation of 5'AMP from cAMP, SPA). The experiment is classed as biochemical. The conditions noted are these: human recombinant enzyme expressed in Sf9 cells. As to the method:
Evaluation of the effects of compounds on the activity of the human phosphodiesterase-3A is quantified by measuring the formation of 5′AMP from cAMP using a human recombinant enzyme expressed in a clonal isolate of Spodoptera frugiperda cells (Sf9) cells.
The test compound, reference compound or water (control) are added to a buffer containing 40 mM tris(hydroxymethyl)aminomethane (Tris)/HCl (pH 7.4) and 8 mM MgCl2, 450 nMcAMP and 0.25 μCi [3H]cAMP.
Thereafter, the reaction is initiated by addition of the enzyme (about 1 U) and the mixture is incubated for 20 min at 22° C.
For basal control measurements, the enzyme is omitted from the reaction mixture.
Following incubation SPA beads are added. After 30 min at 22° C. under shaking, the amount of [^3H]5′AMP is quantified with a scintillation counter (Topcount, Packard).
The results are expressed as a percent inhibition of the control enzyme activity. The standard inhibitory reference compound is milrinone (CAS number 78415-72-2), which is tested in each experiment at several concentrations to obtain an inhibition curve from which its IC50 value is calculated.

SMILES strings stand for the structures.

T3 sequence (Q14432 whole entry): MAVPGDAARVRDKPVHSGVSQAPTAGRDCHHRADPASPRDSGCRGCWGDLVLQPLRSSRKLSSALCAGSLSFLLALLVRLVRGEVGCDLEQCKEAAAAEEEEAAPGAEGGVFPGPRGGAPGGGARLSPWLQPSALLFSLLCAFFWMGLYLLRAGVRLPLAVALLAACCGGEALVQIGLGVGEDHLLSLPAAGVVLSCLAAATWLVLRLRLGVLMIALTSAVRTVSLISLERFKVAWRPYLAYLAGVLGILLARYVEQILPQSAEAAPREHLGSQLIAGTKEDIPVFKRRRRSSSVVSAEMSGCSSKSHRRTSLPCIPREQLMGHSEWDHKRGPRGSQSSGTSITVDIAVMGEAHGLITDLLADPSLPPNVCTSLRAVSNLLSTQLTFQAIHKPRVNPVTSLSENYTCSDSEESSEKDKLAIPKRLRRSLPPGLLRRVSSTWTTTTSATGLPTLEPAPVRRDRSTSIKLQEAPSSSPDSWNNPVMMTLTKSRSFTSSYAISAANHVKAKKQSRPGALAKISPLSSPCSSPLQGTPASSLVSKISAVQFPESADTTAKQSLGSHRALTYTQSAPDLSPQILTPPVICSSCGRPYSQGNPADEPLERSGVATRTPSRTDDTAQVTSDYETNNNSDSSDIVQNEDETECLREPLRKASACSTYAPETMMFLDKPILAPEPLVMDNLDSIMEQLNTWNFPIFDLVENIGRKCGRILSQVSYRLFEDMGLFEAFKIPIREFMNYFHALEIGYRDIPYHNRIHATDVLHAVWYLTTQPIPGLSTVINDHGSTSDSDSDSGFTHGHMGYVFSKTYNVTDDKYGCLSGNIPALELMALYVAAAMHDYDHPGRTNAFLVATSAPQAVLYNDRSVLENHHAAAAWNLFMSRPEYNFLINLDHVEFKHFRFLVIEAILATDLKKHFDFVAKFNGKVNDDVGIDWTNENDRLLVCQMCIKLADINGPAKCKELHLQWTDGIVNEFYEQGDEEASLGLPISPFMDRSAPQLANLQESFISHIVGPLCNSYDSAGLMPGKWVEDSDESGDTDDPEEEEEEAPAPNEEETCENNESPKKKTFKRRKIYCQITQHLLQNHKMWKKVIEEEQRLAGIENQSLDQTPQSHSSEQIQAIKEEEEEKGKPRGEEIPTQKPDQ
T1 sequence (P43220 24-463 L260F): as the sequence (P43220 24-463) above, with L237F counted along it

Turning to `COc1cc(C(=O)O)cc2c1nc(CN1CCN(c3cccc(OCc4ccc(Cl)cc4F)n3)[C@@H]3COC[C@@H]31)n2C[C@@H]1CCO1` (single isomer, unassigned) [Example 16a, 2-(((4aR*,7aS*)-4-(6-((4-Chloro-2-fluorobenzyl)oxy)pyridin-2-yl)hexahydrofuro[3,4-b]pyrazin-1(2H)-yl)methyl)-4-methoxy-1-(((S)-oxetan-2-yl)methyl)-1H-benzo[d]imidazole-6-carboxylic acid], the EC50 at human GLP-1R receptor worked out at 0.63 nM; on GLP-1R, 1.9 nM. In addition, the IC50 in experiment [1] came out at 29000 nM.

Consider `O=C(O)c1cc(F)c2nc(CN3CCN(c4cccc(OCc5ccc(Cl)cc5F)n4)[C@@H]4COC[C@@H]43)n(C[C@@H]3CCO3)c2c1` (single isomer, unassigned) [Example 19a, 2-(((4aR*,7aS*)-4-(6-((4-Chloro-2-fluorobenzyl)oxy)pyridin-2-yl)hexahydrofuro[3,4-b]pyrazin-1(2H)-yl)methyl)-4-fluoro-1-(((S)-oxetan-2-yl)methyl)-1H-benzo[d]imidazole-6-carboxylic acid], for which the results for the EC50 at human GLP-1R receptor and at GLP-1R were 1.5 nM and 4 nM, respectively. Moreover, the half-maximal inhibitory concentration (IC50) in experiment [1] came to 22000 nM.

For orientation: EC50 means the concentration needed to bring the measured effect to its halfway point. The low end stands for greater potency, the high end for weaker potency. In general, IC50 refers to the concentration that gives 50% inhibition.
